Results published in patent publication US12565475B2, “Small molecule compound inhibiting signal transmission path of TLR7 and TLR9 and use thereof” (AJOU UNIVERSITY INDUSTRY-ACADEMIC COOPERATION FOUNDATION, priority 2019, dated 2026).

Columns and labels:
[1] = biological target: T1, TLR9 (Homo sapiens, UniProt Q9NR96); settings: Target TLR9; values from cited literature/patent; cited from earlier work
T1 sequence (Q9NR96 26-1032): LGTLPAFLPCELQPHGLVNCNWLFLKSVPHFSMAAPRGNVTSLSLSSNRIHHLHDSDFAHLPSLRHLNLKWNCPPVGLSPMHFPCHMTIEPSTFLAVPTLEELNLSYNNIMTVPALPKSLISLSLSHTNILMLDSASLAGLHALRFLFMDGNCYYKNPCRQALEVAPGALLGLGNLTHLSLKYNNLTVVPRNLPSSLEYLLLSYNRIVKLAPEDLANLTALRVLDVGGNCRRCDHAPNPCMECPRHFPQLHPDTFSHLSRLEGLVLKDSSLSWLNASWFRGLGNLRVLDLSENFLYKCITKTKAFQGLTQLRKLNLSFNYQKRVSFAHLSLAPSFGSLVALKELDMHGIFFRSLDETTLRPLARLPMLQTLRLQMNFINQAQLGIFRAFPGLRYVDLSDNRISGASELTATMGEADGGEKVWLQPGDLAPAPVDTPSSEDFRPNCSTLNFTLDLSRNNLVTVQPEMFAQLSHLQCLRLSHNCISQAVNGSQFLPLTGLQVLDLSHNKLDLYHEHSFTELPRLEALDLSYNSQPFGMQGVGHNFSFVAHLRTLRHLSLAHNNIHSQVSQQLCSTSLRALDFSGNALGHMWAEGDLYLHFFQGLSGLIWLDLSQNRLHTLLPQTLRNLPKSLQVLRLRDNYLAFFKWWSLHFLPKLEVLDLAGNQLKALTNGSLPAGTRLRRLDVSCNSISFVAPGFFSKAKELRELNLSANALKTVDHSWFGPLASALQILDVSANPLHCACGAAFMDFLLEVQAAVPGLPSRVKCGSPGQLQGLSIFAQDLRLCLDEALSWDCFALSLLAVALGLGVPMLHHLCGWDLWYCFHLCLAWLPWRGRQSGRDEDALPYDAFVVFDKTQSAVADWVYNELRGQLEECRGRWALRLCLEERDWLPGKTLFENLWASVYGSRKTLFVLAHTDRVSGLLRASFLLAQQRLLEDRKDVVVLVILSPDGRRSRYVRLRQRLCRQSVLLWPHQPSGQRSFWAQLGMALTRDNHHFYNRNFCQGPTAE

[2] = system: RAW 264.7 cells; experiment: MTT cell viability / cytotoxicity assay; format: cell-based, murine; settings: 50 μM, 24 hours
Experimental: RAW 264.7 cells were seeded onto 96-well cell culture plate at a density of 2×10^4 cells/well and allowed to stabilize overnight. The cells were treated with test compounds or a negative control (DMSO; dimethyl sulfoxide) for 24 hours, where the final DMSO concentration of the treated well was 0.25%. Then, the medium was removed, and 500 μg/ml of an MTT (3-(4,5-dimethylthiazol-2-yl)-2,5-diphenyltetrazolium bromide, InvivoGen Ltd.) solution was added to each well. After 3 hours, the solution was replaced with DMSO (Biosesang Co. Ltd., Korea), and incubated for an additional 30 minutes to complete formazan dissolution. Absorbance was measured by a microplate colorimetric reader at a wavelength of 595 nm and normalized to the control for the determination of the cell viability. All incubations were performed under the same conditions as described above.
Before testing the antagonistic properties of the selected compounds, an MTT (3-(4,5-dimethylthiazol-2-yl)-2,5-diphenyltetrazolium bromide) assay was performed, whereby the cytotoxicity of the compounds in a murine macrophage cell line (RAW 264.7) was monitored. […] The other ligands were excluded as test subjects due to the high cytotoxicity thereof.

[3] = system: RAW 264.7 cells; experiment: Agonistic activity: TNF-α secretion after stimulation with compound alone (ELISA); format: cell-based, murine; settings: compound alone 24 hours
[4] = biological target: T2, TLR9 (Mus musculus, UniProt Q9EQU3); experiment: TLR9-mediated TNF-α secretion (ODN2395 stimulation), ELISA; format: cell-based, murine; settings: for inhibitory efficacy on TLR9-mediated TNF-α secretion: RAW 264.7, 10 or 50 μM, ODN2395 (FIG. 4A)
T2 construct: endogenous in cells; host or cells: RAW 264.7
T2 sequence (Q9EQU3 26-1032): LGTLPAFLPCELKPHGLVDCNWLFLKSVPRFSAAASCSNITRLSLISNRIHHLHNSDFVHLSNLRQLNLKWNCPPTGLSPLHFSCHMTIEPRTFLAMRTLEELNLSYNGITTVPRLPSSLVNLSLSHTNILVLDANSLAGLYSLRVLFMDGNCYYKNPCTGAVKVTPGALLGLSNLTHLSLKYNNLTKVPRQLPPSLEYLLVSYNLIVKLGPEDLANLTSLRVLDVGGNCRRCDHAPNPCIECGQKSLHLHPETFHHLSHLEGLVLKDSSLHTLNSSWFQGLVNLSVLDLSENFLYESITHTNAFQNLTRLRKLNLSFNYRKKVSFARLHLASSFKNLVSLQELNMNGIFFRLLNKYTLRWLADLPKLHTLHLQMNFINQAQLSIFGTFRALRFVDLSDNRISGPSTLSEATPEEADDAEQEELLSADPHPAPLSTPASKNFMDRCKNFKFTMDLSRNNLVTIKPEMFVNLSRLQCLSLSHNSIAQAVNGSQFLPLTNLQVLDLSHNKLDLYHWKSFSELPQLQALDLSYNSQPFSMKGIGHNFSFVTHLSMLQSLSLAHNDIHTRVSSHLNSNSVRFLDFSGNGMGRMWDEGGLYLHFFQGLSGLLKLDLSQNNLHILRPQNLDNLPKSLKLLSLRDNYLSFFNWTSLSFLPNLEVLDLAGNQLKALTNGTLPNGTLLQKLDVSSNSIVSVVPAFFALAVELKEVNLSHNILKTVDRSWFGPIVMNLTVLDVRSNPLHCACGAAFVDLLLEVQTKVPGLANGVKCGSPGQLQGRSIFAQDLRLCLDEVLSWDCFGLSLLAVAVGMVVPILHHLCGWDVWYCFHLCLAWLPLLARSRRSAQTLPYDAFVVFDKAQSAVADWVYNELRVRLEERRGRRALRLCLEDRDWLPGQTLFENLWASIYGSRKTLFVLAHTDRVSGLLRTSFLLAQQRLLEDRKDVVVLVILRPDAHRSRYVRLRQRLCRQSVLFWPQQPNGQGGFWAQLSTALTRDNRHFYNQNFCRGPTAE
Experimental: (§1) Agonists specific to TLR1/TLR2 (Pam3CSK4), TLR2/TLR6 (FSL-1), TLR3 (Poly I:C), TLR7 (imiquimod), and TLR8 (TL8-506) were purchased from InvivoGen Ltd. (Hong-Kong, China), and a TLR4-specific agonist (LPS from E. coli O111:B4) was purchased from Sigma-Aldrich, Inc. For TLR9-specific stimulation, class C CpG-ODN (ODN2395, 5′-TCGTCGTTTTCGGCGCGCGCCG-3′) having full phosphorothioate backbone modification was synthesized (Bioneer, Inc., Daejeon, Korea). All TLR agonists were dissolved in deionized water and applied to a culture media for TLR activation. The cells were treated with test compounds or a control medium for 1 hour, and then stimulated with a TLR agonist for 4 hours, or 24 hours in the case of poly(I:C), and the cytokine secretion was monitored.
(§2) RAW 264.7 or differentiated THP-1 cell lines were seeded onto a 96-well culture plate at a density of 2×10^4 cells/well. The cells were treated with test compounds for 1 hour followed by the stimulation with TLR agonists for 4 hours. The supernatant was transferred to pre-coated assay plates, and the secretion levels of mouse and human TNF-α were measured by respective ELISA kits (Invitrogen, Carlsbad, CA, USA). All experiments were performed according to the manufacturer's instructions. Absorbance was measured by a microplate reader spectrophotometer (Molecular Devices, Inc., San Jose, CA, USA), and data was interpolated from a standard curve using SoftMax Pro 5.3 software (Molecular Devices, Inc.).
(§3) In order to evaluate the antagonistic effect of each compound on TLR7/TLR9 through ELISA (enzyme-linked immunosorbent assay), RAW 264.7 cells were pretreated with the eight compounds followed by the stimulation with a TLR7-specific agonist (imiquimod, 3.61 μM) or with a TLR9-specific agonist (ODN2395, 0.5 μM). […] Since the two ligands had no agonistic effect per se (FIG. 3B), the increased cytokine production may be due to cell activation (or non-specific cellular stress) by co-treatment. Consequently, TIC10 was selected as the most suitable lead for further optimization to improve the inhibitory potency against both TLR7 and TLR9.

[5] = biological target: T3, TLR7 (Mus musculus, UniProt P58681); experiment: TLR7-mediated TNF-α secretion (imiquimod stimulation), ELISA; format: cell-based, murine; settings: for inhibitory efficacy on TLR7-mediated TNF-α secretion: RAW 264.7, 10 or 50 μM, imiquimod (FIG. 4B)
T3 construct: endogenous in cells; host or cells: RAW 264.7
T3 sequence (P58681 27-1050): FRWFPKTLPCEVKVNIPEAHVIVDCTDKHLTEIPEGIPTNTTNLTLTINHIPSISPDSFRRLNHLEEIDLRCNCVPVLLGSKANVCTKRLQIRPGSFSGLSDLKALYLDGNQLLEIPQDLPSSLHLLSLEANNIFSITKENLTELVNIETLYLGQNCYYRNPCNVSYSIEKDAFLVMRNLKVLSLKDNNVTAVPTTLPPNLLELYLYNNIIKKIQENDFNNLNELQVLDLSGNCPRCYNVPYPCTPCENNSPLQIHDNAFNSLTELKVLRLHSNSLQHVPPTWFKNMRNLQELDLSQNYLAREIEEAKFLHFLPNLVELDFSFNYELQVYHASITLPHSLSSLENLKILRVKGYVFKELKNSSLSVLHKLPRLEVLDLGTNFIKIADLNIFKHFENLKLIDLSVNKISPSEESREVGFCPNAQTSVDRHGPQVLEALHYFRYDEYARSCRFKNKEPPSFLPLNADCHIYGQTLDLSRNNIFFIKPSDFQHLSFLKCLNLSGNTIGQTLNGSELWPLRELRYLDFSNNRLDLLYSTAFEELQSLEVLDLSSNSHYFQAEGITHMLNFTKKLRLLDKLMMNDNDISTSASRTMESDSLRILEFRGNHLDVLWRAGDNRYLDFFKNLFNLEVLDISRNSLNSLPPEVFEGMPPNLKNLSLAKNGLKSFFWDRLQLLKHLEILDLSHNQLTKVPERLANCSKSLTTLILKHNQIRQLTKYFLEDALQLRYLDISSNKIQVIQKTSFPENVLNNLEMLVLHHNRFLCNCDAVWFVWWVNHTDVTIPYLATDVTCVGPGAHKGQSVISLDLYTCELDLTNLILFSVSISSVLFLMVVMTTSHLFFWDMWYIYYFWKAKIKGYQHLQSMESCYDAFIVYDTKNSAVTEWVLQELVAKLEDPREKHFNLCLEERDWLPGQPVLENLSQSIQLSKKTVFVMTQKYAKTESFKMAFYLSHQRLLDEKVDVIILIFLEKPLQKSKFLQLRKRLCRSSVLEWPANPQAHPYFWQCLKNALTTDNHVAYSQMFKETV
Experimental: as §1, §2, §3

SMILES | IC50 [1] [µM] | inhibitory efficacy on TLR9-mediated TNF-α secretion [4] | inhibitory efficacy on TLR7-mediated TNF-α secretion [5] | also measured
CN1CCN(c2ccc(-c3nc(NCCN4CCOCC4)c4ccccc4n3)cc2)CC1 [CHEMBL457704] | 0.02 |  |  | 
CN(C)CCNc1nc(-c2ccc(N3CCN(C)CC3)cc2)nc2ccccc12 [CHEMBL515364] | 0.03 |  |  | 
COc1cc2nc(-c3ccc(N4CCN(C)CC4)cc3)nc(NCCN3CCOCC3)c2cc1OC [CPG-52364] | 0.0046 |  |  | 
COc1ccc(-c2cnc(NCc3cccc(OC)c3O)n2C)cc1 [TIC10, 2-methoxy-6-({[5-(4-methoxyphenyl)-1-methyl-1H-imidazol-2-yl]amino}methyl)phenol] |  |  |  | cytotoxicity (MTT assay) [2]: non-toxic or marginally toxic; expression of proinflammatory cytokine TNF-α on stimulation with ligand alone (agonistic role) [3]: did not induce the expression of proinflammatory cytokine TNF-α; inhibition of TLR9-mediated TNF-α secretion ([4]; RAW 264.7, 50 μM, pretreated 1 hour, ODN2395 0.5 μM 4 hours): significantly inhibit; inhibition of TLR7-mediated TNF-α secretion ([5]; RAW 264.7, at 50 µM, pretreated 1 hour, imiquimod 3.61 μM 4 hours): inhibited
CCOc1ccc(-c2cnc(NCc3ccc(OC)c(OC)c3OC)n2C)cc1 [TIC10-3] |  | improved inhibitory efficacy compared to TIC10 | improved inhibitory efficacy compared to TIC10 | 
CCOc1ccc(-c2cnc(NCc3cccc(OC)c3OC)n2C)cc1 [TIC10-8] |  | improved inhibitory efficacy compared to TIC10 | improved inhibitory efficacy compared to TIC10 | 
